Target: S1P1/EDG1 (Homo sapiens, UniProt P21453)
Assay: S1P1 CRE-bla CHOK1 reporter assay, inhibition of Forskolin induced cAMP
Assay type: cell-based
Settings: agonist activity range, S1P1 CRE-bla CHOK1, 2 μM Forskolin; read-out: S1P1 ACTIVITY
Procedure: Generation of S1P1-Mediated Inhibition of cAMP Reporter Assay
A mammalian expression plasmid containing S1P1/EDG1 cloned into pcDNA3.1 was purchased from Missouri S&T cDNA Resource Centre. […] S1P1/pcDNA3.1 was transfected into the CRE-bla CHO K1 (Invitrogen) cell line, and stable single cell clones were selected using standard techniques.
S1P1 CRE-Bla CHOK1 Reporter Assay—Characterization of S1P1 Agonists
Cells were seeded into 384-well black wall/clear bottom plates at 10^4 cells/well/19.5 μl assay media (DMEM-phenol free, 0.5% charcoal/dextran stripped serum, 2 mM glutamine, 0.1 mM NEAA, 1 mM Na-Pyruvate, 25 mM Hepes) and incubated for 18 hrs at 37° C. in 5% CO2. Dose response curves (10-point) were generated in 10 mM Hepes, 0.1% Pluronic F127, in the presence of Forskolin. Cells were treated with 0.5 μl compound in the presence of 2 μM Forskolin for 4 hrs at 37° C. The FRET-based β-lactamase fluorescent substrate (LiveBLAzer™-FRET B/G Loading Kit CC4-AM; Invitrogen) was prepared according to manufacturer's directions, and incubated with cells for 2 hrs at room temperature. […] Data was analyzed by non-linear regression to determine the EC50 for inhibition of Forskolin induced cAMP.

Chain of S1P1/EDG1 (P21453 whole entry): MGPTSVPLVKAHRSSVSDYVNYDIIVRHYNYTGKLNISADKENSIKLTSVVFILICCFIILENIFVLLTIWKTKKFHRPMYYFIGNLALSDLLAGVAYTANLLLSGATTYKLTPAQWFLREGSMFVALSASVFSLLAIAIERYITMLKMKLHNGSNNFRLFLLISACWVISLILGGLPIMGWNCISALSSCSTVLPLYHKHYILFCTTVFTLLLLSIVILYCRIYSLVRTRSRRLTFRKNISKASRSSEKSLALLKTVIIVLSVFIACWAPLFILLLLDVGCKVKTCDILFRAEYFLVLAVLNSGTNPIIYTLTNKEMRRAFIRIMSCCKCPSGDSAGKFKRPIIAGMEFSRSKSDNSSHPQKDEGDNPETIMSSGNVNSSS

Row | SMILES | EC50 [pM]
1 | CC(C)Oc1ccc(-c2nc(-c3cccc4c3CC[C@H]4O)no2)cc1C#N [Compound 5, (R)-5-(3-(1-hydroxy-2,3-dihydro-1H-inden-4-yl)-1,2,4-oxadiazol-5-yl)-2-isopropoxybenzonitrile] | < 50
2 | CC(C)Oc1ccc(-c2nc(-c3cccc4c3CC[C@@H]4O)no2)cc1C#N [Compound 6, (S)-5-(3-(1-hydroxy-2,3-dihydro-1H-inden-4-yl)-1,2,4-oxadiazol-5-yl)-2-isopropoxy-benzonitrile] | < 50
3 | CC(C)Oc1ccc(-c2nc(-c3cccc4c3CC[C@H]4O)no2)cc1C(F)(F)F [Compound 7] | 500 to 5000
4 | CC(C)Oc1ccc(-c2nc(-c3cccc4c3CC[C@@H]4O)no2)cc1C(F)(F)F [Compound 8] | 50 to 500
5 | CCOc1ccc(-c2nc(-c3cccc4c3CC[C@H]4O)no2)cc1C(F)(F)F [Compound 9] | 500 to 5000
6 | CCOc1ccc(-c2nc(-c3cccc4c3CC[C@@H]4O)no2)cc1C(F)(F)F [Compound 10] | 50 to 500
7 | CC(=O)O[C@@H]1CCc2c(-c3noc(-c4ccc(OC(C)C)c(C#N)c4)n3)cccc21 [Compound 13, (R)-4-(5-(3-cyano-4-isopropoxyphenyl)-1,2,4-oxadiazol-3-yl)-2,3-dihydro-1H-inden-1-yl acetate] | 500 to 5000
8 | CC(C)Oc1ccc(-c2nc(-c3cccc4c3CC[C@H]4OC(=O)C(C)(C)C)no2)cc1C#N [Compound 14, (R)-4-(5-(3-cyano-4-isopropoxyphenyl)-1,2,4-oxadiazol-3-yl)-2,3-dihydro-1H-inden-1-yl pivalate] | > 5000
9 | CC(C)Oc1ccc(-c2nc(-c3cccc4c3CC[C@H]4NCC(N)=O)no2)cc1C#N [Compound 51] | < 50
10 | CNC(=O)CN[C@@H]1CCc2c(-c3noc(-c4ccc(OC(C)C)c(C#N)c4)n3)cccc21 [Compound 52] | 50 to 500
11 | CC(C)Oc1ccc(-c2nc(-c3cccc4c3CC[C@@H]4N[C@@H](C)CO)no2)cc1C#N [Compound 53, 5-(3-((S)-1-(((S)-1-hydroxypropan-2-yl)amino)-2,3-dihydro-1H-inden-4-yl)-1,2,4-oxadiazol-5-yl)-2-isopropoxybenzonitrile] | 500 to 5000
12 | CC(C)Oc1ccc(-c2nc(-c3cccc4c3CC[C@H]4N[C@@H](C)CO)no2)cc1C#N [Compound 54, 5-(3-((R)-1-(((S)-1-hydroxypropan-2-yl)amino)-2,3-dihydro-1H-inden-4-yl)-1,2,4-oxadiazol-5-yl)-2-isopropoxybenzonitrile] | 50 to 500
13 | CC(C)Oc1ccc(-c2nc(-c3cccc4c3CC[C@@H]4N[C@H](C)CO)no2)cc1C#N [Compound 55, 5-(3-((S)-1-(((R)-1-hydroxypropan-2-yl)amino)-2,3-dihydro-1H-inden-4-yl)-1,2,4-oxadiazol-5-yl)-2-isopropoxybenzonitrile] | 50 to 500
14 | CC(C)Oc1ccc(-c2nc(-c3cccc4c3CC[C@H]4N[C@H](C)CO)no2)cc1C#N [Compound 56, 5-(3-((R)-1-(((R)-1-hydroxypropan-2-yl)amino)-2,3-dihydro-1H-inden-4-yl)-1,2,4-oxadiazol-5-yl)-2-isopropoxybenzonitrile] | 50 to 500
15 | CC(C)Oc1ccc(-c2nc(-c3cccc4c3CC[C@H]4NCC(C)(C)O)no2)cc1C#N [Compound 57] | 500 to 5000
16 | CCN(CC)C(=O)CN[C@@H]1CCc2c(-c3noc(-c4ccc(OC(C)C)c(C#N)c4)n3)cccc21 [Compound 60] | 500 to 5000
17 | CC(C)Oc1ccc(-c2nc(-c3cccc4c3CC[C@H]4NCC(=O)O)no2)cc1C#N [Compound 61] | < 50
18 | CC(C)Oc1ccc(-c2nc(-c3cccc4c3CC[C@H]4NCCC(=O)O)no2)cc1C#N [Compound 62, (R)-3-((4-(5-(3-cyano-4-isopropoxyphenyl)-1,2,4-oxadiazol-3-yl)-2,3-dihydro-1H-inden-1-yl)amino)propanoic acid] | < 50
19 | CC(C)Oc1ccc(-c2nc(-c3cccc4c3CC[C@H]4N[C@H](C)C(=O)O)no2)cc1C#N [Compound 63] | < 50
20 | CC(C)Oc1ccc(-c2nc(-c3cccc4c3CC[C@H]4N[C@@H](C)C(=O)O)no2)cc1C#N [Compound 64] | < 50
21 | CC(C)Oc1ccc(-c2nc(-c3cccc4c3CC[C@H]4NC(=O)CO)no2)cc1C#N [Compound 65, (R)-N-(4-(5-(3 cyano-4-isopropoxyphenyl)-1,2,4-oxadiazol-3-yl)-2,3-dihydro-1H-inden-1-yl)-2-hydroxyacetamide] | < 50
22 | CC(C)Oc1ccc(-c2nc(-c3cccc4c3CC[C@H]4NC(=O)CN)no2)cc1C#N [Compound 66] | 50 to 500
23 | CC(C)Oc1ccc(-c2nc(-c3cccc4c3CC[C@H]4NC(=O)CN(C)C)no2)cc1C#N [Compound 67] | 50 to 500

Row | SMILES | EC50 [pM]
24 | CC(C)Oc1ccc(-c2nc(-c3cccc4c3CC[C@H]4NC(=O)CN3CCCC3)no2)cc1C#N [Compound 68] | 500 to 5000
25 | CC(C)Oc1ccc(-c2nc(-c3cccc4c3CC[C@@H]4NS(C)(=O)=O)no2)cc1C#N [Compound 69, (S)-N-(4-(5-(3 cyano-4-isopropoxyphenyl)-1,2,4-oxadiazol-3-yl)-2,3-dihydro-1H-inden-1-yl)methanesulfonamide] | < 50
26 | CC(C)Oc1ccc(-c2nc(-c3cccc4c3CC[C@@H]4NS(=O)(=O)CC(=O)O)no2)cc1C#N [Compound 71, (S)-2-(N-(4-(5-(3-cyano-4-isopropoxyphenyl)-1,2,4-oxadiazol-3-yl)-2,3-dihydro-1H-inden-1-yl)sulfamoyl)acetic acid] | 50 to 500
27 | CCS(=O)(=O)N[C@H]1CCc2c(-c3noc(-c4ccc(OC(C)C)c(C#N)c4)n3)cccc21 [Compound 73] | 500 to 5000
28 | CNCCS(=O)(=O)N[C@H]1CCc2c(-c3noc(-c4ccc(OC(C)C)c(C#N)c4)n3)cccc21 [Compound 74] | 50 to 500
29 | CC(C)CS(=O)(=O)N[C@@H]1CCc2c(-c3noc(-c4ccc(OC(C)C)c(C#N)c4)n3)cccc21 [Compound 76] | 500 to 5000
30 | CC(C)Oc1ccc(-c2nc(-c3cccc4c3CC[C@@H]4NS(=O)(=O)CCN(C)C)no2)cc1C#N [Compound 78, (S)-N-(4-(5-(3 cyano-4-isopropoxyphenyl)-1,2,4-oxadiazol-3-yl)-2,3-dihydro-1H-inden-1-yl)-2-(dimethylamino)ethanesulfonamide] | 500 to 5000
31 | CC(C)Oc1ccc(-c2nc(-c3cccc4c3CC[C@H]4NS(=O)(=O)Cc3ccccc3)no2)cc1C#N [Compound 81] | 500 to 5000
32 | CC(C)Oc1ccc(-c2nc(-c3cccc4c3CC[C@H]4N3CC(O)C3)no2)cc1C#N [Compound 83, (R)-5-(3-(1-(3-hydroxyazetidin-1-yl)-2,3-dihydro-1H-inden-4-yl)-1,2,4-oxadiazol-5-yl)-2-isopropoxybenzonitrile] | 50 to 500
33 | CC(C)Oc1ccc(-c2nc(-c3cccc4c3CC[C@@H]4N3CC(O)C3)no2)cc1C#N [Compound 84, (S)-5-(3-(1-(3-hydroxyazetidin-1-yl)-2,3-dihydro-1H-inden-4-yl)-1,2,4-oxadiazol-5-yl)-2-isopropoxybenzonitrile] | 50 to 500
34 | CC(C)N[C@H]1CCc2c(-c3noc(-c4ccc(OC(C)C)c(C#N)c4)n3)cccc21 [Compound 87] | 500 to 5000
35 | COCCN[C@H]1CCc2c(-c3noc(-c4ccc(OC(C)C)c(C#N)c4)n3)cccc21 [Compound 89] | 50 to 500
36 | N#Cc1cccc(-c2nc(-c3cccc4c3CC[C@H]4N)no2)c1 [Compound 92, (R)-3-(3-(1-amino-2,3-dihydro-1H-inden-4-yl)-1,2,4-oxadiazol-5-yl)benzonitrile] | > 5000
37 | N#Cc1cc(OC(F)(F)F)cc(-c2nc(-c3cccc4c3CC[C@H]4N)no2)c1 [Compound 93, (R)-3-(3-(1-amino-2,3-dihydro-1H-inden-4-yl)-1,2,4-oxadiazol-5-yl)-5-(trifluoromethoxy)benzonitrile] | > 5000
38 | CCOc1ccc(-c2nc(-c3cccc4c3CC[C@H]4N)no2)cc1C#N [Compound 94] | 500 to 5000
39 | CC(C)Oc1ccc(-c2nc(-c3cccc4c3CC[C@H]4N)no2)cc1Cl [Compound 95, (R)-4-(5-(3-chloro-4-isopropoxyphenyl)-1,2,4-oxadiazol-3-yl)-2,3-dihydro-1H-inden-1-amine] | > 5000
40 | CC(C)Oc1ccc(-c2nc(-c3cccc4c3CC[C@H]4N)no2)cc1 [Compound 96, (R)-4-(5-(4-isopropoxyphenyl)-1,2,4-oxadiazol-3-yl)-2,3-dihydro-1H-inden-1-amine] | > 5000
41 | CC(C)Oc1cc(-c2nc(-c3cccc4c3CC[C@H]4N)no2)ccc1C#N [Compound 98, (R)-4-(3-(1-amino-2,3-dihydro-1H-inden-4-yl)-1,2,4-oxadiazol-5-yl)-2-isopropoxy benzonitrile] | > 5000
42 | CC(C)Oc1ccc(C#N)cc1-c1nc(-c2cccc3c2CC[C@H]3N)no1 [Compound 99, (R)-3-(3-(1-amino-2,3-dihydro-1H-inden-4-yl)-1,2,4-oxadiazol-5-yl)-4-isopropoxy benzonitrile] | > 5000
43 | N#Cc1cc(-c2nc(-c3cccc4c3CC[C@H]4N)no2)ccc1OCC1CC1 [Compound 100, (R)-5-(3-(1-amino-2,3-dihydro-1H-inden-4-yl)-1,2,4-oxadiazol-5-yl)-2-(cyclopropylmethoxy)benzonitrile] | 500 to 5000
44 | CC(C)Oc1ccc(-c2nc(-c3cccc4c3CC[C@H]4NCCO)no2)cc1Br [Compound 101] | 500 to 5000
45 | CN[C@H]1CCc2c(-c3noc(-c4ccc(OC(C)C)c(C#N)c4)n3)cccc21 [Compound 105] | 50 to 500

Reference: patent publication US9388147B2 (Receptos, Inc., priority 2009, dated 2016)
